Like-named read-outs stand apart in the source and are kept apart here.
Experiments:
[1] = tested on: Staphylococcus epidermidis ATCC 12228; test: Carrier test: H2O2 solutions treated with 400 to 420 nm light for 1 minute, applied to bacterial carriers after a dwell time; assay type: cell-based
Experimental: The solutions were applied to the targets after the dwell times of 1 minute, 5 minutes, 10 minutes, 30 minutes, 1 hour, 12 hours, 24 hours, 2, days, 5 days, and 7 days. After 7 days of dwell time, all solutions were treated with light again for 1 minute, and a target was treated after 1 minute of dwell time.

[2] = tested on: microbes
[3] = tested on: Desulfoviberio vulgaris Hildenborough (DvH); settings: combined with radiation of 300 nm to 500 nm; in the presence of DvH, not replicated in sterile environment
Experimental: In Example 1, carbon steel coupons were incubated in the presence of oxygen and, as the oxidizing agent compound, hydrogen peroxide, combined with radiation of certain wavelengths of 300 nm to 500 nm in a synergistic reaction, with and without an inoculum of DvH. The metal loss of the carbon steel coupons was measured.

[4] = tested on: DvH
Experimental: In example 2, steel coupons were incubated in cultures of DvH for three days with and without exposure to an oxidizing agent compound, specifically hydrogen peroxide, combined with radiation of certain wavelengths 300-500 nm in a synergistic reaction and then the coupons were measured to determine the amount of metal loss due to corrosion.

[5] = 7 days*: reactivation with light of 400 to 420 nm for 1 minute, 1 minute dwell, control 9.80E+04
[6] = 7 days*: reactivation with light of 400 to 420 nm for 1 minute, applied after 1 minute dwell time
[7] = applied 1 min after solution exposed to light (400 to 420 nm, 1 minute)
[8] = applied 1 min after solution exposed to light, control 6.04E+05 CFU per carrier
[9] = applied 5 min after solution exposed to light
[10] = applied 5 min after solution exposed to light, control 6.04E+05
[11] = applied 10 min after solution exposed to light
[12] = applied 10 min after solution exposed to light, control 6.04E+05
[13] = applied 30 min after solution exposed to light
[14] = applied 30 min after solution exposed to light, control 6.04E+05
[15] = applied 1 hr after solution exposed to light
[16] = applied 1 hr after solution exposed to light, control 6.04E+05
[17] = applied 12 hr after solution exposed to light
[18] = applied 12 hr after solution exposed to light, control 9.20E+04
[19] = applied 24 hr after solution exposed to light
[20] = applied 24 hr after solution exposed to light, control 1.33E+05
[21] = applied 2 days after solution exposed to light
[22] = applied 2 days after solution exposed to light, control 3.00E+05
[23] = applied 5 days after solution exposed to light
[24] = applied 5 days after solution exposed to light, control 4.50E+04
[25] = applied 7 days after solution exposed to light
[26] = applied 7 days after solution exposed to light, control 9.80E+04

Compound: OO [3% H2O2, hydrogen peroxide]
- % Reduction vs. Control [1, 5]: 89.80%
- CFU per carrier [1, 6]: 1.00E+04 CFU per carrier
- CFU per carrier [1, 7]: 7.00E+04 CFU per carrier
- % Reduction vs. Control [1, 8]: 88.42%
- CFU per carrier [1, 9]: 7.00E+04 CFU per carrier
- % Reduction vs. Control [1, 10]: 88.42%
- CFU per carrier [1, 11]: 3.10E+04 CFU per carrier
- % Reduction vs. Control [1, 12]: 94.87%
- CFU per carrier [1, 13]: 2.80E+04 CFU per carrier
- % Reduction vs. Control [1, 14]: 95.37%
- CFU per carrier [1, 15]: 7.10E+04 CFU per carrier
- % Reduction vs. Control [1, 16]: 88.25%
- CFU per carrier [1, 17]: 1.80E+04 CFU per carrier
- % Reduction vs. Control [1, 18]: 80.43%
- CFU per carrier [1, 19]: 2.10E+04 CFU per carrier
- % Reduction vs. Control [1, 20]: 84.21%
- CFU per carrier [1, 21]: 9.00E+04 CFU per carrier
- % Reduction vs. Control [1, 22]: 70.00%
- CFU per carrier [1, 23]: 3.29E+03 CFU per carrier
- % Reduction vs. Control [1, 24]: 92.69%
- CFU per carrier [1, 25]: 1.50E+04 CFU per carrier
- % Reduction vs. Control [1, 26]: 84.69%
- microbes eliminated ([2]; 3% hydrogen peroxide together with radiation of 300 to 600 nanometers): 99.9999%
- microbes eliminated ([2]; 3% solution alone, no radiation): approximately 30%

Compound: OO [0.3% H2O2, hydrogen peroxide]
- % Reduction vs. Control [1, 5]: nr
- CFU per carrier [1, 6]: 1.03E+05 CFU per carrier
- CFU per carrier [1, 7]: 1.10E+04 CFU per carrier
- % Reduction vs. Control [1, 8]: 98.18%
- CFU per carrier [1, 9]: 3.00E+04 CFU per carrier
- % Reduction vs. Control [1, 10]: 95.04%
- CFU per carrier [1, 11]: 1.98E+05 CFU per carrier
- % Reduction vs. Control [1, 12]: 67.24%
- CFU per carrier [1, 13]: 7.00E+04 CFU per carrier
- % Reduction vs. Control [1, 14]: 88.42%
- CFU per carrier [1, 15]: 7.00E+04 CFU per carrier
- % Reduction vs. Control [1, 16]: 88.42%
- CFU per carrier [1, 17]: 1.27E+05 CFU per carrier
- % Reduction vs. Control [1, 18]: nr
- CFU per carrier [1, 19]: 1.40E+04 CFU per carrier
- % Reduction vs. Control [1, 20]: 89.47%
- CFU per carrier [1, 21]: 2.64E+05 CFU per carrier
- % Reduction vs. Control [1, 22]: 12.00%
- CFU per carrier [1, 23]: 4.40E+04 CFU per carrier
- % Reduction vs. Control [1, 24]: 2.22%
- CFU per carrier [1, 25]: 7.70E+04 CFU per carrier
- % Reduction vs. Control [1, 26]: 21.43%

Compound: OO [hydrogen peroxide]
- effect on corrosion (weight loss) of carbon steel coupons [3]: reduce and/or eliminate corrosion in the presence of DvH
- metal loss of coupons without treatment relative to coupons with treatment ([4]; 100 ppm (0.01%) hydrogen peroxide combined with radiation 300-500 nm, three days in DvH cultures): ~2 fold
- corrosion of metal coupons ([4]; in the presence of hydrogen peroxide combined with radiation 300-500 nm, DvH cultures, three days): little to no corrosion
